Laboratory results from US12084451B2, “Compositions and methods for reducing tactile dysfunction, anxiety, and social impairment” (President and Fellows of Harvard College, priority 2018, dated 2024).
“And” between values parts separate entries of the source, which are not always exact repeats. Equal values may be shown once.

Columns and labels:
hGABAA α1β3γ2 = hGABAA α1β3γ2 (Homo sapiens, UniProt P14867+P18507+P28472); test: hGABAA IonFlux HT PAM Assay, α1β3γ2; format: cell-based; details: for Mean Maximal Effect (% of Control): normalized to baseline peak current induced by EC20 GABA (1 μM) for 2 seconds
hGABAA α1β3γ2, sequence (P14867 28-456): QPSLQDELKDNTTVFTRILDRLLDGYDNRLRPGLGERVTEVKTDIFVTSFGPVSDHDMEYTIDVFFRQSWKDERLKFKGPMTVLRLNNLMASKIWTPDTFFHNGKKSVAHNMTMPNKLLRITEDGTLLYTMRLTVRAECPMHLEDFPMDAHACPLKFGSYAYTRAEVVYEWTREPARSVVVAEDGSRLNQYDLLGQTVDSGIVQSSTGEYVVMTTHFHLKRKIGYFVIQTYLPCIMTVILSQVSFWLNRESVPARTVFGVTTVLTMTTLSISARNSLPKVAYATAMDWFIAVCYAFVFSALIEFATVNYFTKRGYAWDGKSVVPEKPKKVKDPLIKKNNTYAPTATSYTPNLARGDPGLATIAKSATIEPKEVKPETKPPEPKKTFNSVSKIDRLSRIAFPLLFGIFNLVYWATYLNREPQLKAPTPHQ
hGABAA α1β3γ2, sequence (P28472 26-473): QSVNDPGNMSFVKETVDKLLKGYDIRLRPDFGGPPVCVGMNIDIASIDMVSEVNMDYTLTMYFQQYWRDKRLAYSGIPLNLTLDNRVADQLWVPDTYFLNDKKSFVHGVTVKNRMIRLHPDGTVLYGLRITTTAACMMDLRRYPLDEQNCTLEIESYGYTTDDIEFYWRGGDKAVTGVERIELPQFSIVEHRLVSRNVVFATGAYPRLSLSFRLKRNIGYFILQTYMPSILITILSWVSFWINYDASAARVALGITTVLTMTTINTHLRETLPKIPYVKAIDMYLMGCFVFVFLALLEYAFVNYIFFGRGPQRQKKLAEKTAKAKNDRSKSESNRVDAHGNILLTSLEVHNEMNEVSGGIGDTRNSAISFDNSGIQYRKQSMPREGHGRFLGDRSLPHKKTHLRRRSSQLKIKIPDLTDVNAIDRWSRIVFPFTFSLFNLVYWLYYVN
hGABAA α1β3γ2, sequence (P18507 40-475): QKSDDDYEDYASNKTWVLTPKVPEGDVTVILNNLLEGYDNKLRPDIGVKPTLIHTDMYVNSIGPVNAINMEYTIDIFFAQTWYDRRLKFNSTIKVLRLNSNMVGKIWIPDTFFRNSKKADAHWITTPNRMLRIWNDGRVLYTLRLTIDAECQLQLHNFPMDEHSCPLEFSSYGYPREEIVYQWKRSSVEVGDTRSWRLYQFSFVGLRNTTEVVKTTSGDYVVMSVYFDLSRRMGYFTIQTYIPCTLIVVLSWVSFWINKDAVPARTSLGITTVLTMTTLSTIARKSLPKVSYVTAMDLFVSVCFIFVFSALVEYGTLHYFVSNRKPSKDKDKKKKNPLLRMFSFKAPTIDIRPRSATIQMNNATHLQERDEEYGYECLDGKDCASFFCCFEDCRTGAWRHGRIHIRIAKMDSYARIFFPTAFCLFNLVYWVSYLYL
Excerpt: (§1) Ligand-gated ion channels targeted were hGABAA α1β3γ2 and hGABAA α2β3γ2.
(§2) Electrophysiological assays conducted to profile nine (9) compounds for activities on the on channel targets listed above for Positive Allosteric Modulator (PAM) activities using the IonFlux HT electrophysiological platform.
The parameters measured are described in the Data Analysis section.
(§3) All wells included a final DMSO concentration of 0.33% including all control wells.
(§4) All recordings were obtained from a holding potential of −60 mV. The compound addition sequence that was used for all additions was the same for all assays. […] The process was repeated with the next ascending concentration of test compound (FIG. 1).
(§5) All data were first exported to an Excel compatible data file and then analyzed using Graph Pad Prism software.

hGABAA α2β3γ2 = hGABAA α2β3γ2 (Homo sapiens, UniProt P18507+P28472+P47869); test: hGABAA IonFlux HT PAM Assay, α2β3γ2; format: cell-based; details: for Mean Maximal Effect (% of Control): normalized to baseline peak current induced by EC20 GABA (0.8 μM) for 2 seconds
hGABAA α2β3γ2, sequence (P47869 29-451): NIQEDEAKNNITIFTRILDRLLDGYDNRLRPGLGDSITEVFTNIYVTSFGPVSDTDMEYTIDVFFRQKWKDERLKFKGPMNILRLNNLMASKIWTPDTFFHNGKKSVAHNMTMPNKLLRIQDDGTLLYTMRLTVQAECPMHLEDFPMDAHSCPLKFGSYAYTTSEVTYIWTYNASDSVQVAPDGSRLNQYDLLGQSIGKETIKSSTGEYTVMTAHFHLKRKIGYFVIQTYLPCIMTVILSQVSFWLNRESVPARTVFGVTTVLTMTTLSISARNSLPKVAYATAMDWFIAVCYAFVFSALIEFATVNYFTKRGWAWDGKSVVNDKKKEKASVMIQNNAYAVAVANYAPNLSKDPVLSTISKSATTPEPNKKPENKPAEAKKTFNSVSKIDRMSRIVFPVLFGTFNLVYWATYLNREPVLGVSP
hGABAA α2β3γ2, sequence (P28472 26-473): as the sequence (P28472 26-473) above
hGABAA α2β3γ2, sequence (P18507 40-475): as the sequence (P18507 40-475) above
Excerpt: as §1, §2
The parameters measured are described in the Data Analysis section. […] Open circles represent data that has been excluded from the curve fitting. Where no curve fit was possible, n/c (not calculable) is listed.
as §3, §4, §5

[1] = Estimated EC50, positive modulation of EC20 GABA current

CN1C(=O)CN=C(c2ccccc2)c2cc(Cl)ccc21 [Diazepam]
(%) Control mean (hGABAA α1β3γ2; 0.003 μM + EC20 GABA): 124.0 % Control and 122.6 % Control and 125.3 % Control | (%) Control n1 (hGABAA α1β3γ2; 0.003 μM + EC20 GABA): 123.6 % Control and 125.3 % Control and 121.6 % Control | (%) Control n2 (hGABAA α1β3γ2; 0.003 μM + EC20 GABA): 124.3 % Control and 119.9 % Control and 129.0 % Control | (%) Control mean (hGABAA α1β3γ2; 0.01 μM + EC20 GABA): 148.4 % Control and 139.6 % Control and 149.7 % Control | (%) Control n1 (hGABAA α1β3γ2; 0.01 μM + EC20 GABA): 149.5 % Control and 141.4 % Control and 137.2 % Control | (%) Control n2 (hGABAA α1β3γ2; 0.01 μM + EC20 GABA): 147.2 % Control and 137.8 % Control and 162.2 % Control | (%) Control mean (hGABAA α1β3γ2; 0.03 μM + EC20 GABA): 186.5 % Control and 171.8 % Control and 193.2 % Control | (%) Control n1 (hGABAA α1β3γ2; 0.03 μM + EC20 GABA): 182.7 % Control and 182.4 % Control and 169.0 % Control | (%) Control n2 (hGABAA α1β3γ2; 0.03 μM + EC20 GABA): 190.3 % Control and 161.2 % Control and 217.4 % Control | (%) Control mean (hGABAA α1β3γ2; 0.1 μM + EC20 GABA): 250.0 % Control and 234.6 % Control and 223.1 % Control | (%) Control n1 (hGABAA α1β3γ2; 0.1 μM + EC20 GABA): 230.0 % Control and 227.4 % Control and 232.1 % Control | (%) Control n2 (hGABAA α1β3γ2; 0.1 μM + EC20 GABA): 269.9 % Control and 241.8 % Control and 214.1 % Control | (%) Control mean (hGABAA α1β3γ2; 0.3 μM + EC20 GABA): 298.9 % Control and 284.3 % Control and 269.3 % Control | (%) Control n1 (hGABAA α1β3γ2; 0.3 μM + EC20 GABA): 265.9 % Control and 275.1 % Control and 262.8 % Control | (%) Control n2 (hGABAA α1β3γ2; 0.3 μM + EC20 GABA): 331.8 % Control and 293.6 % Control and 275.8 % Control | (%) Control mean (hGABAA α1β3γ2; 1 μM + EC20 GABA): 317.0 % Control and 310.4 % Control and 314.3 % Control | (%) Control n1 (hGABAA α1β3γ2; 1 μM + EC20 GABA): 284.9 % Control and 296.1 % Control and 284.8 % Control | (%) Control n2 (hGABAA α1β3γ2; 1 μM + EC20 GABA): 349.1 % Control and 324.7 % Control and 343.8 % Control | Mean Maximal Effect (% of Control) (hGABAA α1β3γ2): 317 % of Control and 310 % of Control and 314 % of Control | (%) Control mean (hGABAA α2β3γ2; 0.003 μM + EC20 GABA): 116.0 % Control and 114.8 % Control and 100.4 % Control | (%) Control n1 (hGABAA α2β3γ2; 0.003 μM + EC20 GABA): 113.8 % Control and 112.4 % Control and 113.2 % Control | (%) Control n2 (hGABAA α2β3γ2; 0.003 μM + EC20 GABA): 118.1 % Control and 117.2 % Control and 87.7 % Control | (%) Control mean (hGABAA α2β3γ2; 0.01 μM + EC20 GABA): 135.3 % Control and 124.0 % Control and 118.1 % Control | (%) Control n1 (hGABAA α2β3γ2; 0.01 μM + EC20 GABA): 131.2 % Control and 123.3 % Control and 122.4 % Control | (%) Control n2 (hGABAA α2β3γ2; 0.01 μM + EC20 GABA): 139.3 % Control and 124.7 % Control and 113.8 % Control | (%) Control mean (hGABAA α2β3γ2; 0.03 μM + EC20 GABA): 162.5 % Control and 158.2 % Control and 142.3 % Control | (%) Control n1 (hGABAA α2β3γ2; 0.03 μM + EC20 GABA): 155.2 % Control and 156.2 % Control and 150.5 % Control | (%) Control n2 (hGABAA α2β3γ2; 0.03 μM + EC20 GABA): 169.9 % Control and 160.3 % Control and 134.2 % Control | (%) Control mean (hGABAA α2β3γ2; 0.1 μM + EC20 GABA): 252.4 % Control and 255.8 % Control and 206.0 % Control | (%) Control n1 (hGABAA α2β3γ2; 0.1 μM + EC20 GABA): 261.1 % Control and 261.6 % Control and 216.8 % Control | (%) Control n2 (hGABAA α2β3γ2; 0.1 μM + EC20 GABA): 243.8 % Control and 249.9 % Control and 195.1 % Control | (%) Control mean (hGABAA α2β3γ2; 0.3 μM + EC20 GABA): 253.5 % Control and 261.6 % Control and 214.1 % Control | (%) Control n1 (hGABAA α2β3γ2; 0.3 μM + EC20 GABA): 267.8 % Control and 260.9 % Control and 230.4 % Control | (%) Control n2 (hGABAA α2β3γ2; 0.3 μM + EC20 GABA): 239.3 % Control and 262.3 % Control and 197.8 % Control | (%) Control mean (hGABAA α2β3γ2; 1 μM + EC20 GABA): 262.3 % Control and 269.3 % Control and 224.3 % Control | (%) Control n1 (hGABAA α2β3γ2; 1 μM + EC20 GABA): 274.0 % Control and 285.9 % Control and 235.0 % Control | (%) Control n2 (hGABAA α2β3γ2; 1 μM + EC20 GABA): 250.6 % Control and 252.8 % Control and 213.6 % Control | Mean Maximal Effect (% of Control) (hGABAA α2β3γ2): 262 % of Control and 269 % of Control and 224 % of Control

CN1CCN(C(=O)O[C@H]2c3nccnc3C(=O)N2c2ccc(Cl)cn2)CC1 [Eszopiclone]
(%) Control mean (hGABAA α1β3γ2; 0.001 μM + EC20 GABA): 105.7 % Control | (%) Control n1 (hGABAA α1β3γ2; 0.001 μM + EC20 GABA): 97.8 % Control | (%) Control n2 (hGABAA α1β3γ2; 0.001 μM + EC20 GABA): 113.5 % Control | (%) Control mean (hGABAA α1β3γ2; 0.01 μM + EC20 GABA): 140.3 % Control | (%) Control n1 (hGABAA α1β3γ2; 0.01 μM + EC20 GABA): 132.0 % Control | (%) Control n2 (hGABAA α1β3γ2; 0.01 μM + EC20 GABA): 148.7 % Control | (%) Control mean (hGABAA α1β3γ2; 0.1 μM + EC20 GABA): 252.4 % Control | (%) Control n1 (hGABAA α1β3γ2; 0.1 μM + EC20 GABA): 242.3 % Control | (%) Control n2 (hGABAA α1β3γ2; 0.1 μM + EC20 GABA): 262.5 % Control | (%) Control mean (hGABAA α1β3γ2; 1 μM + EC20 GABA): 247.6 % Control | (%) Control n1 (hGABAA α1β3γ2; 1 μM + EC20 GABA): 267.4 % Control | (%) Control n2 (hGABAA α1β3γ2; 1 μM + EC20 GABA): 227.7 % Control | (%) Control mean (hGABAA α1β3γ2; 10 μM + EC20 GABA): 252.4 % Control | (%) Control n1 (hGABAA α1β3γ2; 10 μM + EC20 GABA): 262.3 % Control | (%) Control n2 (hGABAA α1β3γ2; 10 μM + EC20 GABA): 242.5 % Control | (%) Control mean (hGABAA α1β3γ2; 100 μM + EC20 GABA): 234.7 % Control | (%) Control n1 (hGABAA α1β3γ2; 100 μM + EC20 GABA): 258.5 % Control | (%) Control n2 (hGABAA α1β3γ2; 100 μM + EC20 GABA): 210.8 % Control | EC50 (hGABAA α1β3γ2; [1]): 12 nM | Mean Maximal Effect (% of Control) (hGABAA α1β3γ2): 252 % of Control | EC50 (hGABAA α2β3γ2; [1]): 164 nM | Mean Maximal Effect (% of Control) (hGABAA α2β3γ2): 213 % of Control
